Test results from patent publication US10617693B2, “Methods of treating and/or preventing actinic keratosis” (Athenex, Inc., priority 2017, dated 2020).

Tested on: subjects with AK on the face or scalp
Assay: Phase 2a study KX01-AK-002: local skin reactions (grade 0 not present to 4 worst) and adverse events, 0.5 mg KX-01 on 25 cm^2
Format: in vivo, human
Description: An ongoing Phase 2a, open-label, multicenter, activity and safety study of KX-01 administered topically in subjects with AK on the face or scalp is described herein. […] Secondary objectives are to assess the activity of KX-01 administered topically during Days 1-57 based on reduction of AK lesion counts from baseline, assess the safety and tolerability and pharmacokinetics, and contrast the dose regimens (5-day treatment with 3-day treatment) in terms of activity and safety in subjects with AK on the face or scalp. This uncontrolled, nonrandomized trial is being conducted at 16 investigational sites in the United States. Enrollment is sequential for 2 cohorts of approximately 80 subjects each. Enrollment is closed for Cohort 1 and ongoing for Cohort 2. The two treatment cohorts are summarized below: • Cohort 1: 0.5 mg KX-01 administered topically to a contiguous treatment area of 25 cm^2 with 4-8 clinically typical AK lesions for 5 consecutive days • Cohort 2: 0.5 mg KX-01 administered topically to a contiguous treatment area of 25 cm^2 with 4-8 clinically typical AK lesions for 3 consecutive days
0.5 mg KX-01 is administered topically to an area of 25 cm^2 on the face or scalp by site staff on treatment days. […] AK lesion counts are recorded at baseline, days 8, 15, 29, and 57. […] Standardized photography of treatment area is performed at baseline, day 8 and day 57. Plasma samples are being collected at preplanned time points on days 1 and 5 for Cohort 1, and on days 1 and 3 for Cohort 2.
Absence or presence of hyperpigmentation, hypopigmentation and scarring are also assessed. Application site reactions not classified as LSRs are reported as AEs. […] LSRs and AEs are reported separately. All LSRs, pigmentation, and scarring in the treatment area will be followed to resolution or stabilization.
The range of possible composite scores is 0-24.
The Phase 2a trial described in Example 2a was completed with 84 eligible subjects enrolled in each of two cohorts: one cohort was subjected to the treatment for 5 consecutive days, and the other cohort was subjected to the treatment for 3 consecutive days. The results are described below and in FIG. 5.

[1] = Cohort 1 (5-day), 67 subjects with day 57 visit

## O=C(Cc1ccc(-c2ccc(OCCN3CCOCC3)cc2)cn1)NCc1ccccc1 [KX-01]
[1]
  Subjects with no LSR in the treatment area throughout the study: 7
  Subjects with vesiculation/pustulation: Three
Cohort 1 (5-day), N=82
  Number of TEAEs considered related to KX-01: 12
  Subjects reporting TEAEs considered related to KX-01: Seven
  Total number of TEAEs: 54
Cohort 1 (5-day), N=82, mild tenderness, stinging, pruritus
  Cases of application site reaction: 6
Cohort 1 (5-day), of 60 subjects with LSRs
  Subjects whose LSRs had not returned to baseline at day 57: 8
Cohort 1 (5-day), in 2 subjects, none considered related to study drug
  Number of SAEs: 3
Day 1, Cohort 1 (5-day)
  Crusting grade 0, n/N subjects: 62/67
  Crusting grade 1, n/N subjects: 5/67
  Crusting grade 2, n/N subjects: 0
  Crusting grade 3, n/N subjects: 0
  Crusting grade 4, n/N subjects: 0
  Erosion/Ulceration grade 0, n/N subjects: 67/67
  Erosion/Ulceration grade 1, n/N subjects: 0
  Erosion/Ulceration grade 2, n/N subjects: 0
  Erosion/Ulceration grade 3, n/N subjects: 0
  Erosion/Ulceration grade 4, n/N subjects: 0
  Erythema grade 0, n/N subjects: 56/67
  Erythema grade 1, n/N subjects: 11/67
  Erythema grade 2, n/N subjects: 0
  Erythema grade 3, n/N subjects: 0
  Erythema grade 4, n/N subjects: 0
  Flaking/Scaling grade 0, n/N subjects: 55/67
  Flaking/Scaling grade 1, n/N subjects: 12/67
  Flaking/Scaling grade 2, n/N subjects: 0
  Flaking/Scaling grade 3, n/N subjects: 0
  Flaking/Scaling grade 4, n/N subjects: 0
  Swelling grade 0, n/N subjects: 67/67
  Swelling grade 1, n/N subjects: 0
  Swelling grade 2, n/N subjects: 0
  Swelling grade 3, n/N subjects: 0
  Swelling grade 4, n/N subjects: 0
  Vesiculation/Pustulation grade 0, n/N subjects: 67/67
  Vesiculation/Pustulation grade 1, n/N subjects: 0
  Vesiculation/Pustulation grade 2, n/N subjects: 0
  Vesiculation/Pustulation grade 3, n/N subjects: 0
  Vesiculation/Pustulation grade 4, n/N subjects: 0
Day 2, Cohort 1 (5-day)
  Crusting grade 0, n/N subjects: 64/67
  Crusting grade 1, n/N subjects: 2/67
  Crusting grade 2, n/N subjects: 1/67
  Crusting grade 3, n/N subjects: 0
  Crusting grade 4, n/N subjects: 0
  Erosion/Ulceration grade 0, n/N subjects: 67/67
  Erosion/Ulceration grade 1, n/N subjects: 0
  Erosion/Ulceration grade 2, n/N subjects: 0
  Erosion/Ulceration grade 3, n/N subjects: 0
  Erosion/Ulceration grade 4, n/N subjects: 0
  Erythema grade 0, n/N subjects: 44/67
  Erythema grade 1, n/N subjects: 20/67
  Erythema grade 2, n/N subjects: 3/67
  Erythema grade 3, n/N subjects: 0
  Erythema grade 4, n/N subjects: 0
  Flaking/Scaling grade 0, n/N subjects: 51/67
  Flaking/Scaling grade 1, n/N subjects: 15/67
  Flaking/Scaling grade 2, n/N subjects: 1/67
  Flaking/Scaling grade 3, n/N subjects: 0
  Flaking/Scaling grade 4, n/N subjects: 0
  Swelling grade 0, n/N subjects: 67/67
  Swelling grade 1, n/N subjects: 0
  Swelling grade 2, n/N subjects: 0
  Swelling grade 3, n/N subjects: 0
  Swelling grade 4, n/N subjects: 0
  Vesiculation/Pustulation grade 0, n/N subjects: 67/67
  Vesiculation/Pustulation grade 1, n/N subjects: 0
  Vesiculation/Pustulation grade 2, n/N subjects: 0
  Vesiculation/Pustulation grade 3, n/N subjects: 0
  Vesiculation/Pustulation grade 4, n/N subjects: 0
Day 3, Cohort 1 (5-day)
  Crusting grade 0, n/N subjects: 63/67
  Crusting grade 1, n/N subjects: 3/67
  Crusting grade 2, n/N subjects: 1/67
  Crusting grade 3, n/N subjects: 0
  Crusting grade 4, n/N subjects: 0
  Erosion/Ulceration grade 0, n/N subjects: 66/67
  Erosion/Ulceration grade 1, n/N subjects: 1/67
  Erosion/Ulceration grade 2, n/N subjects: 0
  Erosion/Ulceration grade 3, n/N subjects: 0
  Erosion/Ulceration grade 4, n/N subjects: 0
  Erythema grade 0, n/N subjects: 32/67
  Erythema grade 1, n/N subjects: 24/67
  Erythema grade 2, n/N subjects: 10/67
  Erythema grade 3, n/N subjects: 1/67
  Erythema grade 4, n/N subjects: 0
  Flaking/Scaling grade 0, n/N subjects: 46/67
  Flaking/Scaling grade 1, n/N subjects: 14/67
  Flaking/Scaling grade 2, n/N subjects: 5/67
  Flaking/Scaling grade 3, n/N subjects: 2/67
  Flaking/Scaling grade 4, n/N subjects: 0
  Swelling grade 0, n/N subjects: 67/67
  Swelling grade 1, n/N subjects: 0
  Swelling grade 2, n/N subjects: 0
  Swelling grade 3, n/N subjects: 0
  Swelling grade 4, n/N subjects: 0
